Key:
Format in all cases: cell-based
PC3M-pro4 = assay: Growth/viability assay, IC50 at 72 h; details: Homo sapiens; PC3M-pro4, Fig. 2g
Source text: (§1) Four commercial (LnCaP, 22rv1, DU145 and PC3) and twelve non-commercial (LAPC-4 [44], CWR22, PCb2 [45], PC3Lymphnode, PC3M, PC3M-pro4 [46] and PC3M-Ln4 [47], LnCaP-104S [47], LnCaP104R1 [47], LnCaP-C81 [47], C4-2B [48], VCAP [49] and DuCaP [[49]) cell lines were selected for the in vitro experimental studies for their biological characteristics: LAPC-4 (Androgen receptor [AR] positive, androgen dependent with low Akt/mTOR activities, p53 wt); LnCaP (AR positive, androgen dependent with high Akt/mTOR activities, p53 wt); LnCaP-C81 and LnCaP-C4-2B (AR positive, androgen independent with high Akt/mTOR activities, p53 wt); 22rv1 (AR positive, androgen independent with low Akt/mTOR activities, p53 wt); PC3 (AR negative, with high Akt/mTOR activities and no p53 function (p53 del) and DU145 (AR negative, with low Akt/mTOR activities and mutant p53). PC3 and DU145 have been also transfected with AR to obtain PC3AR [50] and DU-AR [51]. Benign prostatic hyperplasia line (BPH1), and Prostatic epithelial lines (EPN and RWPE-1) were used as non-neoplastic controls. Cells were routinely cultured in appropriate medium supplemented with 10 % fetal bovine serum (FBS), 1 % pen-strep and 1 % L-glutamine (Invitrogen Corporation, Carlsbad, CA). To minimize the risk to work with misidentified and/or contaminated cell lines, DNA profiling was periodically carried out in-house to authenticate cell cultures. DNA was isolated from cell lines using a standard DNA isolation kit. STR profiling was performed by using GenePrint® 10 System (Promega Corporation, Madison, WI). An eight-capillary 3500 Genetic Analyzer (Applied Biosystems Life Technologies Europe BV, Monza, Italy) was used to separate and identify alleles using standard procedures. GenePrint® 10 System allows co-amplification and detection of eight human loci required by the guidelines ASN-0002. For non-commercial cell lines, the authentication process was carried out by comparing STR-fingerprints with those published by Adri van Bokhoven and co-workers. In addition, cell lines were stocked at very low passages and used at <15-20 subcultures.
(§2) Cells were seeded at a density of 2 x 10^4 cells/mL in 24-well plates. Cells were left to attach and grow in 5 % FCS DMEM for 24 h. After this time, cells were maintained in the appropriate culture conditions. Morphological controls were performed every day with an inverted phase-contrast photomicroscope (Nikon Diaphot, Tokyo, Japan) before cell trypsinization and counting. Cells were trypsinized and resuspended in 1.0 ml of saline, then counted using a NucleoCounter™ NC-100 (automated cell counter systems, Chemotec, Gydevang, Denmark). The effect on cell proliferation was measured by taking the mean cell number with respect to controls over time for the different treatment groups.
(§3) Viable cells were counted by using the NucleoCounter™ NC-100 (automated cell counter systems, Chemotec, Cydevang, DK). Apoptosis was evaluated by using Tali® Apoptosis Kit - Annexin V Alexa Fluor® 488 & Propidium Iodide-based, (Life Technologies Italia, Monza, Italy). Stained cells were then measured on a Tali® Image-Based Cytometer. Apoptosis was further confirmed by FACS analysis following the instructions of the manufacturer.
(§4) Six SINE analogs KPT-127, KPT-185, KPT-205, KPT-227, KPT251 and KPT-330 sharing a trifluoromethyl phenyl triazole scaffold, were investigated for their growth inhibitory and apoptotic potential in our PCa cell panel. Therefore, the effects of these XPO1 inhibitors were evaluated on the growth of PCa cell lines performing dose- and time-dependent studies. To examine the dose-dependent effects of these compounds, we treated cells with varying doses of the compounds (0, 1, 10, 50, 100, 500 and 1000 nM) and assessed viability at 72 hours after treatment. The IC50 for each compound was then calculated. […]

BPH-1 = assay: Growth/viability assay, IC50 at 72 h; details: Homo sapiens
Source text: as §1, §2, §3, §4

PC3AR = assay: Growth/viability assay, IC50 at 72 h; details: Homo sapiens, PC3/AR, Fig. 2g
Source text: as §1, §2, §3, §4

PC3M-Ln4 = assay: Growth/viability assay, IC50 at 72 h; details: Homo sapiens; PC3M-Ln4, Fig. 2g
Source text: as §1, §2, §3, §4

DU-AR = assay: Growth/viability assay, IC50 at 72 h; details: Homo sapiens, Fig. 2g
Source text: as §1, §2, §3, §4

DU145 = assay: Growth/viability assay, IC50 at 72 h; details: Homo sapiens, DU-145; DU145, Fig. 2g
Source text: as §1, §2, §3, §4

EPN = assay: Growth/viability assay, IC50 at 72 h; details: Homo sapiens, Fig. 2g
Source text: as §1, §2, §3, §4

RWPE-1 = assay: Growth/viability assay, IC50 at 72 h; details: Homo sapiens; RWPE-1, Fig. 2g
Source text: as §1, §2, §3, §4

22rv1 = assay: Growth/viability assay, IC50 at 72 h; details: Homo sapiens
Source text: as §1, §2, §3, §4

PC3 = assay: Growth/viability assay, IC50 at 72 h; details: Homo sapiens, PC-3
Source text: as §1, §2, §3, §4

LnCaP-C81 = assay: Growth/viability assay, IC50 at 72 h; details: Homo sapiens; C-81, Fig. 2g
Source text: as §1, §2, §3, §4

DuCaP = assay: Growth/viability assay, IC50 at 72 h; details: Homo sapiens, Fig. 2g
Source text: as §1, §2, §3, §4

CWR22 = assay: Growth/viability assay, IC50 at 72 h; details: Homo sapiens; CWR22, Fig. 2g
Source text: as §1, §2, §3, §4

LnCaP104R1 = assay: Growth/viability assay, IC50 at 72 h; details: Homo sapiens; 104R1, Fig. 2g
Source text: as §1, §2, §3, §4

PCb2 = assay: Growth/viability assay, IC50 at 72 h; details: Homo sapiens; PCb2, Fig. 2g
Source text: as §1, §2, §3, §4

LAPC-4 = assay: Growth/viability assay, IC50 at 72 h; details: Homo sapiens
Source text: as §1, §2, §3, §4

C4-2B = assay: Growth/viability assay, IC50 at 72 h; details: Homo sapiens, Fig. 2g
Source text: as §1, §2, §3, §4

VCaP = assay: Growth/viability assay, IC50 at 72 h; details: Homo sapiens, Fig. 2g
Source text: as §1, §2, §3, §4

LnCaP-104S = assay: Growth/viability assay, IC50 at 72 h; details: Homo sapiens, Fig. 2g
Source text: as §1, §2, §3, §4

LnCaP = assay: Growth/viability assay, IC50 at 72 h; details: Homo sapiens
Source text: as §1, §2, §3, §4

PCa cell lines = assay: Growth inhibition across the PCa cell panel; details: Homo sapiens; 72 hours, range across the cell panel; read-out: IC50 values, range over PCa cell lines
Source text: as §1, with “STR profiling was performed by using GenePrint® 10 System (Promega Corporation, Madison, WI). An eight-capillary 3500 Genetic Analyzer (Applied Biosystems Life Technologies Europe BV, Monza, Italy) was used to separate and identify alleles using standard procedures. GenePrint® 10 System allows co-amplification and detection of eight human loci required by the guidelines ASN-0002. For non-commercial cell lines, the authentication process was carried out by comparing STR-fingerprints with those published by Adri van Bokhoven and co-workers. In addition, cell lines were stocked at very low passages and used at <15-20 subcultures.” left out
Cells were seeded at a density of 2 x 10^4 cells/mL in 24-well plates. […] Cells were trypsinized and resuspended in 1.0 ml of saline, then counted using a NucleoCounter™ NC-100 (automated cell counter systems, Chemotec, Gydevang, Denmark). The effect on cell proliferation was measured by taking the mean cell number with respect to controls over time for the different treatment groups.
as §3, with “Apoptosis was further confirmed by FACS analysis following the instructions of the manufacturer.” left out
as §4

Structure (SMILES) | IC50 (PC3M-pro4) [nM] | IC50 (BPH-1; BPH-1, BPH1, Fig. 2g) [nM] | IC50 (BPH-1; BPH-1, 72 hours, Fig. 2a-f) [nM] | IC50 (PC3AR) [nM] | IC50 (PC3M-Ln4) [nM] | IC50 (DU-AR) [nM] | IC50 (DU145) [nM] | IC50 (EPN) [nM] | IC50 (RWPE-1) [nM] | IC50 (22rv1; 22rv1, Fig. 2g) [nM] | IC50 (PC3; PC3, Fig. 2g) [nM] | IC50 (LnCaP-C81) [nM] | IC50 (DuCaP) [nM] | IC50 (CWR22) [nM] | IC50 (LnCaP104R1) [nM] | IC50 (PCb2) [nM] | IC50 (LAPC-4; LAPC4, LAPC-4, Fig. 2g) [nM] | IC50 (C4-2B) [nM] | IC50 (VCaP) [nM] | IC50 (LnCaP-104S) [nM] | further results
FC(F)(F)c1cc(-c2ncn(/C=C\c3nnco3)n2)cc(C(F)(F)F)c1 [KPT-251] | 355 | > 1000 | > 1000 | 260 | 210 | 300 | 360 | 1000 | 1000 | 361 | 300 | 240 | 210 | 480 | 270 | 320 | 628 | 200 | 440 | 200 | IC50 (22rv1; 22rv1, 72 hours, Fig. 2a-f): 361 ± 59 nM; IC50 (PC3; PC3, 72 hours, Fig. 2a-f): 380 ± 39 nM; IC50 (LAPC-4; LAPC4, 72 hours, Fig. 2a-f): 628 ± 123 nM; IC50 (LnCaP; 72 hours, Fig. 2a-f): 257 ± 82 nM; IC50 (LnCaP; Fig. 2g): 257 nM; IC50 (PCa cell lines): 150 to 300 nM
O=C(/C=C\n1cnc(-c2cc(C(F)(F)F)cc(C(F)(F)F)c2)n1)NNc1cnccn1 [KPT-330] | 118 | > 1000 | > 1000 | 122 | 90 | 124 | 105 | 800 | 1000 | 102 | 103 | 80 | 160 | 160 | 83 | 114 | 365 | 66 | 120 | 130 | IC50 (LnCaP; Fig. 2g): 171 nM; IC50 (PCa cell lines): 43 to 201 nM
